Experimental data published in patent publication US12310969B2, “Antithrombotic compositions and methods for using same” (UNIVERSITY OF NORTH TEXAS, priority 2021, dated 2025).

Assays:
zebrafish larvae = test: Laser-induced venous thrombosis, time to occlusion (TTO) of the caudal vein; assay type: in vivo; conditions: 5 dpf larvae, 2 hours
Procedure: (§1) UNC6852 (MedChem Express, Monmouth Junction, NJ), in 10% DMSO in saline were prepared at four different concentrations (0.075 mM, 0.15 mM, 0.3 mM and 0.6 mM). Eight nl of each of these solutions was injected into the 5 dpf larvae and incubated for 2 hours. For controls, 10% DMSO in saline was injected. For adult fish injections, 5 μl of 0.6 mM UNC6852 was injected intravenously and incubated for 6 hours.
For laser-induced venous thrombosis, 5 dpf larvae were transferred into a 1.5 ml Eppendorf tube containing 0.5 ml E3 medium followed by the addition of 10 μl of 10 mM MS222. After 2 minutes of anesthesia, 0.5 ml of 1.6% low melting agarose at 37° C. was added to the Eppendorf tube, and the contents were mixed gently by pipetting up and down using a transfer pipette. […] The slide with the larvae was focused with a 20× objective of the Nikon OPTIPHOT™ fluorescence microscope. The pulsed nitrogen laser with a wavelength of 445 nm, routed through the coumarin-440 dye (Micro Point Laser, Stanford Research Systems Inc., Sunnyvale, CA), was delivered at 10 hits per cycle through the fluorescence port to hit the mid-region in the caudal vein located in the 5th somite posterior to the anal pore.^22 TTO of the vessel was measured as the time taken to occlude the vessel from the time the laser hits the vessel until the vessel completely occludes.

tfpia mRNA = test: qRT-PCR of tfpia gene expression in liver and spleen of adult zebrafish; assay type: in vivo; conditions: adult fish, 5 μl of 0.6 mM injected intravenously, 6 hours post-injection, vs wild-type control
Procedure: as §1
Adult zebrafish were first anesthetized using 1 mM Tricaine in E3 medium. After 2 minutes, once the zebrafish flips on its side, it was removed from the medium, and an incision was made in the ventral surface from the anal pore up to the gills using a pair of scissors. The visible liver and spleen were retrieved using a pair of forceps. […]
To 1 μl of the liver and spleen RNA (1 μg/μl), 4 μl of QSCRIPT™ (gScript™) cDNA SUPERMIX™ (Quanta Bio, Beverly, MA) and 15 μl of nuclease-free water were added. […] The ΔCt values for WT samples were calculated as a difference between Ct values of β-actin and tfpia. The average ΔCt value for WT was then calculated. […] Similarly, in the knockdown samples, from each ΔCt value, the average ΔCt value of the WT was subtracted, and the resulting ΔΔCt value was calculated, followed by the calculation of fold change.

Cc1ncsc1-c1ccc(CNC(=O)[C@@H]2C[C@@H](O)CN2C(=O)[C@@H](NC(=O)CCCNC(=O)c2ccc(-c3cnc(NCc4ccco4)n4cnnc34)cc2)C(C)(C)C)cc1 [UNC6852]
time to occlusion (TTO) of the caudal vein after laser injury (zebrafish larvae; 8 nl injected intravenously at 0.075, 0.15, 0.3 and 0.6 mM, compared to control larvae (10% DMSO in saline)): dose-dependent prolongation of TTO | concentration giving maximal prolongation of TTO (zebrafish larvae; 8 nl injected intravenously, 4 concentrations tested (0.075-0.6 mM)): 0.6 mM | tfpia mRNA levels (fold change of tfpia gene expression in liver and spleen) (tfpia mRNA): increased tfpia mRNA levels
